Experimental data reported in patent US20200032249A1, “LABELING, ISOLATION, & ANALYSIS OF RNA FROM RARE CELL POPULATIONS” (priority 2017, published 2020).

System: MDA231 cells expressing CD/UPRT
Assay: Flura-tagged mRNA immunoprecipitation from MDA231 CD/UPRT cells co-cultured with mouse 4T1 cells, RT-PCR
Format: cell-based, human
Details: 12 h, 100-1000 MDA231 cells to 10^6 4T1 cells
Procedure: FIG. 1a-f. Labeling and purification of RNA by CD expression and 5-FC treatment. FIG. 1a—Schematic diagram showing RNA labeling using CD and 5-FC. FIG. 1b—Chemical reactions steps involved in the labeling of RNA using CD and 5-FC. The dotted arrow indicates the intermediary steps that are not shown. FIG. 1c Relative fold enrichment of mRNA isolated by Flura-tagging. 293T cells expressing CD or unlabeled controls were treated with 5-FC for the indicated times, labeled mRNAs were immunopurified using anti-BrdU antibody, and the levels of labeled mRNAs of the indicated genes relative to corresponding non-immunoprecipitated inputs normalized to immunopurified mRNAs from cells not expressing CD were quantified by RT-PCR. […] Cells were analyzed by immunofluorescence or harvested for RNA analysis. […] The fold enrichment of the indicated representative human genes over mouse housekeeping genes (mHPRT1 and mLDH1) was measured by RT-PCR (n=3±S.E.). […]
Next, we determined whether this system could be used to isolate RNA specifically from cells of interest that were admixed with a large proportion of other cells. […] After 12 h of 5-FC addition, 5-FU-labeled mRNAs were immunoprecipitated, and the proportion of human and mouse mRNA for representative housekeeping genes were determined by reverse transcriptase-polymerase chain reaction (RT-PCR). […]

Nc1nc(=O)[nH]cc1F [5-FC, 5-fluorocytosine]
enrichment of human mRNAs compared to mouse mRNAs: more than 10^5 fold
